# “Also recorded” adds a separate entry of the source. No end group written: not given here. TMR = tetramethylrhodamine label
# How the values were obtained:
# [1] = tested on: Z cell function; test: screen of more than 300 compounds for boosting Z cell function; settings: alone or in combination with a Zfra peptide
# Excerpt: In this example, more than 300 hundred compounds were screened for their activities in boosting Z cell function either alone or in combination with a Zfra peptide. From this collection of compounds, CI-4AS-1 (androgen receptor agonist) and (±)-Blebbistatin (inhibitor for non-muscle myosin II ATPase) were identified.
# [2] = tested on: DsRed-Hyal-2; test: Förster resonance energy transfer (FRET) analysis; format: binding; settings: versus EGFP and DsRed controls, n=10, p<0.005
# [3] = tested on: breast MDA-MB-231 cells; test: breast MDA-MB-231 xenograft growth in pre-injected nude mice; format: in vivo; settings: pre-injected once per week for 4 weeks
# Method: (§1) FIG. 3 is a diagram showing identification of Z spleen cells. (A) Nude mice were pre-injected with sterile MilliQ water or a mixture of Zfra1-31 (2 mM in 100 μl sterile water) in 4 consecutive weeks, followed by inoculating malignant breast MDA-MB-231 cells on both flanks 7 and 50 days later. Tumor sizes on both flanks (blue and red) were measured daily. […] These mice were sacrificed, and TMR-Zfra-positive spleen cells were isolated by cell sorting. TMR-Zfra-positive Z spleen cells were around 25% in Zfra-treated mice. […] In B16F10 melanoma-growing BALB/c mice, spleen Z cells dropped down to 3.3% or even lower. In untreated control mice, Z cells are around 25-29%.
# [4] = tested on: spleen Z cells; test: level of TMR-Zfra-positive spleen Z cells by cell sorting; format: in vivo; settings: Zfra-treated BALB/c mice inoculated with B16F10 melanoma
# Method: as §1
# Next, the levels of spleen Z cells in mice pre-treated with full-length Zfra1-31 or control and inoculated with B16F10 melanoma cells were examined. B16F10-growing BALB/c mice had low levels of Z cells, which were 3.3% or lower (FIG. 3C). In contrast, Zfra-treated mice had 26.1% Z cells (FIG. 3C). […] These cells are Hyal-2 positive. The observations indicate that Z cells (e.g., Hyal-2 positive spleen cells) are depleted in mice having cancer growths, and that treatment with Zfra increases the number of Z cells in mice having cancer growths.
# Spleen cells from the mice were isolated and stained with synthesized peptide TMR-Zfra1-31 (Tetramethylrhodamine-Zfra, excitation 550 nm, emission 573 nm) for 30 minutes on ice.
# [5] = tested on: Z cells; test: Z cell activation by Zfra peptide; format: cell-based, BALB/c mice; settings: in vivo and in vitro
# Method: Briefly, spleen cells were isolated from BALB/c mice and then cultured overnight. These cells were stimulated with Zfra4-10 peptide (10 μM) for 16-24 hr, and then stained with TMR-Zfra, followed by isolating the cells using a cell sorter. Z+ and Z− cell populations were counted and injected via tail veins of BALB/c. […] FIG. 5.
# [6] = tested on: melanoma B16F10 cells; test: melanoma B16F10 lung metastasis after tail-vein inoculation in pre-injected BALB/c mice; format: in vivo
# Method: (§2) FIG. 1 includes photos showing that Zfra suppresses melanoma B16F10 metastasis to the lung and cancer stemness. BALB/c mice were pre-injected with sterile MilliQ water or Zfra4-10 (1 mM in 100 μl sterile water) in 3 consecutive weeks. Post-treatment for a week, these mice were inoculated with melanoma B16F10 cells via tail veins (2×10^5 cells in 100 μl PBS). Control mice died 50 days later, and Zfra-treated mice were alive and sacrificed for examination. A: Shown on the lung surface are the metastatic tumor foci as dark areas in control mice. […] No metastases were found in other organs in both mice. C: Zfra suppressed Ser14 phosphorylation of […] (or Wwox) in the lung of Zfra treated mice (˜65% suppression).
# BALB/c mice were pre-injected with sterile MilliQ water or Zfra4-10 (1 mM in 100 μl sterile water) once per week in three consecutive weeks. Following one week post-treatment, the mice were inoculated with melanoma B16F10 cells via tail veins (2×10^5 cells in 100 μl PBS).
# (§3) Importantly, cancer cell stemness, as determined by the expression of pluripotent stem cell markers Oct-4 and SSEA-4, was blocked in the lungs of Zfra4-10 treated mice (FIG. 1D). Thus, when WWOX phosphorylation at Ser14 is blocked by Zfra, cancer cell metastasis and stemness is prevented.
# [7] = tested on: WWOX; test: Ser14 phosphorylation of WWOX and Wwox protein level in the lung of treated mice; format: in vivo, BALB/c mice
# Method: as §2, §3
# [8] = tested on: melanoma B16F10 cells; test: melanoma B16F10 growth in pre-injected BALB/c mice; format: in vivo; settings: pre-injection before inoculation, immune competent BALB/c mice
# Method: as §1
# FIG. 4A is a diagram showing in vivo animal models design to test the anticancer efficacy of chemical drugs and “Z cells” activation. Immune competent BALB/c mice or immune deficient NOD-SCID mice were pre-injected with CI-4AS-1 or (±)-Blebbistatin with or without zinc finger-like Zfra4-10 peptide once per week for 3 consecutive weeks, and then inoculated with 2.5×10^6 or 1.5×10^6 malignant melanoma B16F10 cells at both right and left flanks. After 60 days, spleen cells transferred were performed from BALB/c to NOD-SCID mice via tail veins injection. Thirty days later, the recipient mice were inoculated with 1.5×10^6 malignant melanoma B16F10 cells at both right and left flanks. […]
# [9] = molecular target: T1, membrane hyaluronidase Hyal-2 (Mus musculus, UniProt O35632); test: staining of spleen cells with TMR-Zfra and Hyal-2 antibody, epifluorescence and confocal microscopy; format: binding, NOD-SCID mice; settings: 30 minutes on ice
# T1 construct: spleen cells were isolated from immune deficient NOD-SCID mice; from tissue; host or cells: spleen cells of NOD-SCID mice
# T1 sequence (O35632 21-448): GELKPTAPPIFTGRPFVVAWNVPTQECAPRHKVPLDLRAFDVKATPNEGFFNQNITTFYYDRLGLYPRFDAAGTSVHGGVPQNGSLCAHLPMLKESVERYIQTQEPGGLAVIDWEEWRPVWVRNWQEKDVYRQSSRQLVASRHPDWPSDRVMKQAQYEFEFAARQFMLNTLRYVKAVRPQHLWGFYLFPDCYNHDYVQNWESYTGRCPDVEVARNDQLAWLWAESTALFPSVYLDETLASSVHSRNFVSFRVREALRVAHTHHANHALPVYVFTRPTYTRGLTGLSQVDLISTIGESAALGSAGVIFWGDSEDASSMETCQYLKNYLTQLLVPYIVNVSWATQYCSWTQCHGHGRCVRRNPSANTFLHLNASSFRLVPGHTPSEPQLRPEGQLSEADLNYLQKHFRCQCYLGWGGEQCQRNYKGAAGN
# Method: FIG. 2 includes photos showing the identification of Zfra^+ Hyal-2^+ spleen cells. A and B: Spleen cells of NOD-SCID mice were isolated and stained with synthesized peptide TMR-Zfra1-31 and Hyal-2 (green fluorescence) antibody for 30 minutes on ice, and then fixed with 4% formaldehyde.
# In this example, spleen cells were isolated from immune deficient NOD-SCID mice, which are deficient in T and B lymphocytes and NK cells. The isolated spleen cells were stained with antibody against Hyal-2 (green) and TMR-Zfra (Zfra1-31 labeled with red fluorescent tetramethylrodamine) for 30 minutes on ice, and then fixed with 4% formaldehyde (FIG. 2). […] These Hyal-2^+ Zfra^+ positive cells are interchangeably referred to as “Z cells,” for cells interacting with Zfra.
compound,measurement,setting,value
Cc1ccc2c(c1)C(=O)C1(O)CCN(c3ccccc3)C1=N2 (racemic) [(±)-Blebbistatin],outcome of screen for boosting Z cell function,[1],identified
CI-4AS-1,outcome of screen for boosting Z cell function,[1],identified
"EGFP-Zfra: EGFP-tagged Zfra used in FRET analysis with DsRed-Hyal-2 (MSSRRSSSCKYCEQDFRAHTQKNAATPFLAN; cysteine pairing not given here; also: EGFP tag fused, end not given here) [reference compound]",binding to Hyal-2 by FRET,[2],significant binding
NH-MSSRRSSSCKYCEQDFRAHTQKNAATPFLAN-COOH (H-MSSRRSSSCKYCEQDFRAHTQKNAATPFLAN-OH; cysteine pairing not given here) [Zfra1-31],growth of breast MDA-MB-231 xenografts,[3],resisted the growth
same,TMR-Zfra-positive Z spleen cells,[4],26.1%
RRSSSCK [Zfra4-10],Z cell activation,[5],sufficient to induce Z cell activation both in vivo and in vitro
same,cancer cell stemness (pluripotent markers Oct-4 and SSEA-4) in the lung,"[6]; B16F10 cells in the lung, FIG. 1D",suppressed the stemness; also recorded: blocked
same,melanoma B16F10 metastasis to the lung,[6]; Zfra4-10 1 mM in 100 μl once per week for 3 weeks before 2×10^5 B16F10 cells via tail veins,Metastasis was not found; also recorded: suppressed melanoma B16F10 metastasis to the lung
same,survival of mice,[6]; when control mice died 50 days after inoculation of B16F10 cells,remained alive
same,Wwox protein levels,[7]; lung of Zfra treated mice,not suppressed
same,suppression of Ser14 phosphorylation of WWgre (or Wwox) in the lung,"[7]; lung of Zfra treated mice, FIG. 1C",~65%
same,Ser14 phosphorylation of WWOX (in words),"[7]; lung of treated mice, FIG. 1C",inhibition of Ser14 phosphorylation of WWOX
same,growth of melanoma B16F10 in BALB/c mice,[8],prevented melanoma B16F10 growth
TMR-Zfra1-31: Zfra1-31 labeled with red fluorescent tetramethylrodamine ({TMR}-MSSRRSSSCKYCEQDFRAHTQKNAATPFLAN; cysteine pairing not given here),binding to or colocalization with membrane Hyal-2 on spleen cells,[9],bound to membrane hyaluronidase Hyal-2
same,binding to or colocalization with membrane Hyal-2 on spleen cells,[9]; listed as TMR-Zfra,colocalization of both proteins on the cell surface
"Zfra: Zfra peptide, form not stated at the place (Zfra1-31 or Zfra4-10) (MSSRRSSSCKYCEQDFRAHTQKNAATPFLAN)",binding to Hyal-2 by FRET,[2],binding of Zfra to membrane Hyal-2
same,growth of melanoma B16F10 in BALB/c mice,[8],completely blocked
same,TMR-Zfra-positive Z spleen cells,[4],around 25%

# Source: patent US9546354B2, “Z cells activated by zinc finger-like protein and uses thereof in cancer treatment” (National Cheng Kung University, priority 2014, dated 2017)
